The CC50 is the concentration at which the toxic effect on the cells reaches its halfway point. Read a low CC50 as harm at low concentration.

Common to all, as to assay type: cell-based, human
For data set [1], the system named is 639-V. The data set is described as follows: MTT viability assay (CC50). As to the method:
(§1) Further experiments were performed in VM-CUB1 and UM-UC-3 cells overexpressing HDAC4 (see below). Standard UCCs were obtained from the DSMZ (Braunschweig, Germany) and Dr. H.B. Grossmann HB (Houston, USA). For comparison, we investigated the spontaneously immortalized normal human bladder cell line HBLAK (provided by CELLnTEC, Bern, Switzerland) and the immortalized human embryonic kidney cell line HEK-293 (provided by Dr. V. Kolb-Bachofen, Duesseldorf, Germany). Cells were cultured and treated in DMEM GlutaMAX-I (Gibco, Darmstadt, Germany; UCCs and HEK-293) supplemented with 10% fetal calf serum (Biochrom, Berlin, Germany), except for HBLAK cultured in CnT-Prime Epithelial Culture Medium (CELLnTEC, Bern, Switzerland; HBLAK), at 37 °C and 5% CO2. STR (short tandem repeat) profiling via DNA fingerprint analysis was performed for all cell lines. Primary cultures of normal urothelial cells (UP) were established from healthy ureters removed during tumor nephrectomy and cultured as described. These cultures were used with informed consent of the patients and approval by the Ethics Committee of the Medical Faculty of the Heinrich-Heine-University, study number 1788. All inhibitors were dissolved in DMSO and stored as 10 mM stocks. […] The pan-HDACi inhibitor SAHA previously studied in detail was used for comparison. Solvent control cells were treated with equal amounts of DMSO.
(§2) For the determination of cellular mean cytotoxic concentration (CC50), UCCs, non-malignant control cells, and HDAC4-overexpressing clones were seeded in a 96-well format and treated once with a range of defined concentrations of the HDAC inhibitors. After 72 h, viability was quantified by NAD(P)H-dependent 3-(4,5-dimethylthiazol-2-yl)-2,5-diphenyltetrazolium bromide dye reduction assay (MTT, Sigma Aldrich, St. Louis, MO). CC50 values were estimated from three independent experiments by non-linear regression analysis (four-parameter logistic equation) using Prism 4.0 (Graph Pad) or Origin 8.0 (Origin Lab, Northhampton, GB). For time-dependent proliferation experiments, viability of untreated or inhibitor-treated cells was measured after 24, 48, and 72 h.
For orientation: Tetrazolium dyes change colour on reduction, which living cells bring about.

In data set [2] the test system is HBLAK. The data set is described as follows: MTT viability assay (CC50). To be noted: 72 h of incubation. Here is the method: as §1, §2
In data set [3] the test system is UM-UC-3. The data set is described as follows: MTT viability assay (CC50). Particulars: UM-UC-3, MTT. Here is the method:
as §1, §2

Data set [4] deals with VM-CUB1. Briefly: MTT viability assay (CC50). Here is the method: as §1, §2
Data set [5] has as its system UC cell lines (VM-CUB1, UM-UC-3, 639-V). Briefly: MTT viability assay, UC cell lines taken together. To be noted: MTT and HCA live/dead assays. Here is the method:
Further experiments were performed in VM-CUB1 and UM-UC-3 cells overexpressing HDAC4 (see below). Standard UCCs were obtained from the DSMZ (Braunschweig, Germany) and Dr. H.B. Grossmann HB (Houston, USA). For comparison, we investigated the spontaneously immortalized normal human bladder cell line HBLAK (provided by CELLnTEC, Bern, Switzerland) and the immortalized human embryonic kidney cell line HEK-293 (provided by Dr. V. Kolb-Bachofen, Duesseldorf, Germany). Cells were cultured and treated in DMEM GlutaMAX-I (Gibco, Darmstadt, Germany; UCCs and HEK-293) supplemented with 10% fetal calf serum (Biochrom, Berlin, Germany), except for HBLAK cultured in CnT-Prime Epithelial Culture Medium (CELLnTEC, Bern, Switzerland; HBLAK), at 37 °C and 5% CO2. […]
For the determination of cellular mean cytotoxic concentration (CC50), UCCs, non-malignant control cells, and HDAC4-overexpressing clones were seeded in a 96-well format and treated once with a range of defined concentrations of the HDAC inhibitors. After 72 h, viability was quantified by NAD(P)H-dependent 3-(4,5-dimethylthiazol-2-yl)-2,5-diphenyltetrazolium bromide dye reduction assay (MTT, Sigma Aldrich, St. Louis, MO). […] For time-dependent proliferation experiments, viability of untreated or inhibitor-treated cells was measured after 24, 48, and 72 h.

Data set [6] concerns 639-V. The data set is described as follows: High-content analysis-based fluorescent live/dead assay. To be noted: HCA, 72 h. Here is the method:
(§3) Live and dead cells were assayed by high-content analysis (HCA). […] After 72 h of treatment, cells were stained with a mixture of Hoechst 33342 (Sigma Aldrich, St. Louis, MO), calcein AM (Merck Millipore, Germany), and propidium iodide (Santa Cruz Biotechnology, Heidelberg) for cell nuclei, live and dead cells. The staining solution was replaced by PBS after 20 min. Images were acquired using ArrayScan XTI Live High Content Platform (Thermo Fisher Scientific Inc., USA) using excitation filters of 386, 485, and 560 nm for Hoechst 33342, calcein AM, and propidium iodide, respectively. The results were analyzed using HCS Studio Cellomics Scan (Thermo Fisher Scientific Inc., USA).

The test system of data set [7] is HBLAK. The description is as above. Particulars: HCA, 72 h. Here is the method: as §3
In data set [8] the test system is UM-UC-3. The description is as above. To be noted: UM-UC-3, HCA, 72 h. As to the method: as §3
Data set [9] relates to VM-CUB1. The data set is described as above. To be noted: VMCub1, HCA, 72 h. Here is the method: as §3
A further data set concerns UCCs. Briefly: Western blot of acetylated α-tubulin and histones H3/H4. To be noted: 48 h; 19i 1 or 2 μM, SAHA 2.5 μM. As to the method: Total protein extraction, purification of histones, and Western blot analysis were performed as previously described. Briefly, cells were incubated for 30 min on ice in RIPA-buffer (150 mM NaCl, 1% Triton X-100, 0.5% desoxycholate, 1% Nonidet P-40, 0.1% SDS, 1 mM EDTA, 50 mM TRIS (pH 7.6)) containing 10 μl/ml protease inhibitor cocktail (#P-8340, Sigma Aldrich, St. Louis, MO). Histones were extracted for detection of histone H3 and H4 acetylation by a modified published protocol employing sulfuric acid extraction and TCA-precipitation. Concentrations of total protein and histones were determined by BCA protein assay (Thermo Fisher Scientific, Carlsbad, CA). Subsequently, total cell proteins (15 μg) or extracted histones (2 μg) were separated by SDS-PAGE (total proteins 10–12% gels, histones 15% gels), transferred to PVDF membranes (Merck Millipore, Berlin, Germany), and were incubated with primary antibodies (at RT for 1 h or 4 °C overnight, see Additional file 3: Table S2) following blocking with 5% non-fat milk or BSA (bovine serum albumin) in TBST (150 mM NaCl, 10 mM TRIS, pH 7.4 and 0.1% Tween-20). For signal detection, membranes were incubated with a suitable horseradish peroxidase-conjugated secondary antibody (see Additional file 2: Table S1) at RT for 1 h and signals were visualized by SuperSignal™ West Femto (Thermo Fisher Scientific, Carlsbad, CA) and WesternBright Quantum kit (Biozym, Hessisch Oldendorf, Germany).

With `O=C(NCC1(c2nc(-c3ccccc3)cs2)CCOCC1)c1cccc(-c2noc(C(F)(F)F)n2)c1` [TMP269], the cytotoxic concentration (CC50) with 639-V [1] (24 h) was found to be 96.1 µM; with 639-V [1] (48 h) it was 65.8 µM; with 639-V [1] (72 h of incubation) it was 39.4 µM; in the data set with HBLAK [2], 48.7 µM; in the data set on UM-UC-3 [3] (24 h), 110 µM; with UM-UC-3 [3] (48 h) it was 73.8 µM. Further, the CC50 in the data set with UM-UC-3 [3] (72 h of incubation) came to 32.3 µM; with VM-CUB1 [4] (VM-CUB1, MTT, 72 h of incubation), 45.9 µM; in the data set on VM-CUB1 [4] (VMCub1, MTT, 24 h), 115 µM; with VM-CUB1 [4] (VMCub1, MTT, 48 h), 115 µM; in the data set on 639-V [6] it was 16.5 µM; in the data set on HBLAK [7], 10.6 µM. The values for the cytotoxic concentration (CC50) in the data set with UM-UC-3 [8] and in the data set with VM-CUB1 [9] were 14.6 µM and 20.1 µM, respectively. In [5], the “concentrations effective on / impeding proliferation of UC cell lines” value was > 10 µM.

For `O=C(CCCCCCC(=O)Nc1ccccc1)NO` [SAHA, suberoylanilide hydroxamic acid, reference compound], the “acetylation of α-tubulin” value in the data set on UCCs is given as “strongly induced”.

The record behind these values is publication PMC6069857, “Effects of novel HDAC inhibitors on urothelial carcinoma cells” (Clinical Epigenetics, 2018).
